The values that follow come from US11578009B2, “Urea-based blend composition and method for the manufacture thereof” (YARA INTERNATIONAL ASA, priority 2018, dated 2023).

Data set [1] is described as follows: nBTPT stability on YaraVera Amidas (UAS) during storage, HPLC analysis of nBTPT content. It counts as physicochemical. The following applies: for Stabilizing effect on nBTPT on UAS: Experiment 4, MgSO4/MgO combinations, FIG. 4. As for the experimental part: For lab scale experiments, 1.2 kg of solid fertilizer material was added to a lab scale drum. […] A residence time of 10 minutes was applied and the rotating speed of the drum was consequently the same in each experiment. […] Before use, the moisture-repellent coating was preheated to 80° C. Larger scale experiments with amounts up to 40 kg of fertilizer material were performed in a concrete mixer. The samples were stored under several conditions, dependent on the type of samples: • Bagged at room temperature (18-25° C.) • Bagged at 40° C. • Open to air at room temperature (18-25° C.) 3.

Another data set is described as follows: pH of MgSO4 grades. The class given is physicochemical. The note with it: MgSO4 grade.

As to `[O]=[Mg]` [MgO, magnesium oxide, reference compound], the “Stabilizing effect on nBTPT on UAS” value in data set [1] (462 ppm nBTPT) is reported as “more effective than CaO”.
As to `O=S(=O)([O-])[O-].[Mg+2]` [MgSO4 99.5%], in “pH of MgSO4 grades”, the pH was found to be 8.5.
Same read-out and setting: the result for `O=S(=O)([O-])[O-].[Mg+2]` [MgSO4 99.999%] reads 6.1.
For `O=S(=O)([O-])[O-].[Mg+2]` [MgSO4, magnesium sulphate], the “Stabilizing effect on nBTPT in the presence of UAS” value in data set [1] (Experiment 2, open to air at room temperature 40 days (FIG. 2A) and in bags at 40° C. 8 days (FIG. 2B), 462 ppm nBTPT) is on record as “comparable with the effect of the prior art compound (CaO)”. Also, the “Stabilizing effect on nBTPT on UAS” value in data set [1] (462 ppm nBTPT) is “little effect”. Besides, the “Stabilizing effect at more than 1 weight % of magnesium sulphate” value in data set [1] (more than 1 weight % in the composition) is reported as “did not produce a proportionally better stabilizing effect”.
Turning to `O=S(=O)([O-])[O-].[Na+].[Na+]` [Na2SO4, reference compound], in data set [1] (Experiment 3, open plastic containers at room temperature for 21 days, 462 ppm nBTPT, FIG. 3), the “Stability of nBTPT on YaraVera Amidas product” value is given as “negative effect”.
